The values below come from BindingDB's records for doi:10.1021/jm00160a010 (1986).

The structures appear in SMILES notation.

A short description of assay [1]: Displacement of [3H]EK from Opioid receptor delta 1 in guinea pig brain membrane. A general note: Displacement assays read how much labelled ligand stays bound in the presence of the test substance.
Assay [2] is described as follows: Compound was tested for binding affinity against delta opioid receptor in guinea pig brain membrane using [3H]EK as the radioligand.

One may read the Ki as the dissociation constant of the complex between target and ligand, obtained from inhibition or displacement. For the molecule `O=C(CCC(=O)N[C@@H]1CC[C@@]2(O)[C@H]3Cc4ccc(O)c5c4[C@@]2(CCN3CC2CC2)[C@H]1O5)N[C@@H]1CC[C@@]2(O)[C@H]3Cc4ccc(O)c5c4[C@@]2(CCN3CC2CC2)[C@H]1O5` [1N,4N-di[4-cyclopropylmethyl-10,17-dihydroxy-(13R,14R,17S)-12-oxa-4-azapentacyclo[9.6.1.01,13.05,17.07,18]octadeca-7(18),8,10-trien-14-yl]succinamide], the inhibition constant (Ki) in assay [1] is 12 nM.

Regarding `O=C(CCC(=O)NCC(=O)N[C@@H]1CC[C@@]2(O)[C@H]3Cc4ccc(O)c5c4[C@@]2(CCN3CC2CC2)[C@H]1O5)NCC(=O)N[C@@H]1CC[C@@]2(O)[C@H]3Cc4ccc(O)c5c4[C@@]2(CCN3CC2CC2)[C@H]1O5` [1N,4N-di[4-cyclopropylmethyl-10,17-dihydroxy-(13R,14R,17S)-12-oxa-4-azapentacyclo[9.6.1.01,13.05,17.07,18]octadeca-7(18),8,10-trien-14-ylcarbamoylmethyl]succinamide], affinity in assay [1] was put at a Ki of 7.8 nM.

Turning to `O=C(CCC(=O)NCC(=O)NCC(=O)N[C@@H]1CC[C@@]2(O)[C@H]3Cc4ccc(O)c5c4[C@@]2(CCN3CC2CC2)[C@H]1O5)NCC(=O)NCC(=O)N[C@@H]1CC[C@@]2(O)[C@H]3Cc4ccc(O)c5c4[C@@]2(CCN3CC2CC2)[C@H]1O5` [1N,4N-di[4-cyclopropylmethyl-10,17-dihydroxy-(13R,14R,17S)-12-oxa-4-azapentacyclo[9.6.1.01,13.05,17.07,18]octadeca-7(18),8,10-trien-14-ylcarbamoylmethylcarbamoylmethyl]succinamide], the inhibition constant (Ki) in assay [1] was 4.9 nM.

`O=C(CCC(=O)NCC(=O)NCC(=O)NCC(=O)N[C@@H]1CC[C@@]2(O)[C@H]3Cc4ccc(O)c5c4[C@@]2(CCN3CC2CC2)[C@H]1O5)NCC(=O)NCC(=O)NCC(=O)N[C@@H]1CC[C@@]2(O)[C@H]3Cc4ccc(O)c5c4[C@@]2(CCN3CC2CC2)[C@H]1O5` [1N,4N-di[4-cyclopropylmethyl-10,17-dihydroxy-(13R,14R,17S)-12-oxa-4-azapentacyclo[9.6.1.01,13.05,17.07,18]octadeca-7(18),8,10-trien-14-ylcarbamoylmethylcarbamoylmethylcarbamoylmethyl]succinamide]: the affinity in assay [1] corresponds to a Ki of 6.4 nM.

In assay [1], `CN1CC[C@]23c4c5ccc(O)c4O[C@@H]2[C@H](NC(=O)CCC(=O)N[C@@H]2CC[C@]4(O)[C@H]6Cc7ccc(O)c8c7[C@@]4(CCN6C)[C@@H]2O8)CC[C@]3(O)[C@H]1C5` [1N,4N-di[10,17-dihydroxy-4-methyl-(13R,14S,17S)-12-oxa-4-azapentacyclo[9.6.1.01,13.05,17.07,18]octadeca-7(18),8,10-trien-14-yl]succinamide] had a Ki of 200 nM.

As to `CN1CC[C@]23c4c5ccc(O)c4O[C@@H]2[C@H](NC(=O)CNC(=O)CCC(=O)NCC(=O)N[C@@H]2CC[C@]4(O)[C@H]6Cc7ccc(O)c8c7[C@@]4(CCN6C)[C@@H]2O8)CC[C@]3(O)[C@H]1C5` [1N,4N-di[10,17-dihydroxy-4-methyl-(13R,14S,17S)-12-oxa-4-azapentacyclo[9.6.1.01,13.05,17.07,18]octadeca-7(18),8,10-trien-14-ylcarbamoylmethyl]succinamide], in assay [1], the affinity, expressed as Ki, was 86 nM.

In assay [1], `CN1CC[C@]23c4c5ccc(O)c4O[C@@H]2[C@H](NC(=O)CNC(=O)CNC(=O)CNC(=O)CCC(=O)NCC(=O)NCC(=O)NCC(=O)N[C@@H]2CC[C@]4(O)[C@H]6Cc7ccc(O)c8c7[C@@]4(CCN6C)[C@@H]2O8)CC[C@]3(O)[C@H]1C5` [1N,4N-di[10,17-dihydroxy-4-methyl-(13R,14S,17S)-12-oxa-4-azapentacyclo[9.6.1.01,13.05,17.07,18]octadeca-7(18),8,10-trien-14-ylcarbamoylmethylcarbamoylmethyl]succinamide] registered an inhibition constant Ki of 42 nM.

With `CN1CC[C@]23c4c5ccc(O)c4O[C@H]2[C@@H](NC(=O)CNC(=O)CNC(=O)CCC(=O)NCC(=O)NCC(=O)N[C@H]2CC[C@@]4(O)[C@H]6Cc7ccc(O)c8c7[C@@]4(CCN6C)[C@H]2O8)CC[C@@]3(O)[C@H]1C5` [1N,4N-di[10,17-dihydroxy-4-methyl-(13R,14S,17S)-12-oxa-4-azapentacyclo[9.6.1.01,13.05,17.07,18]octadeca-7(18),8,10-trien-14-ylcarbamoylmethylcarbamoylmethylcarbamoylmethyl]succinamide], the affinity in assay [1] corresponds to a Ki of 50 nM.

As for `CN1CC[C@]23c4c5ccc(O)c4O[C@@H]2[C@H](NC(=O)CNC(=O)CNC(=O)CCC(=O)NCC(=O)NCC(=O)N[C@@H]2CC[C@]4(O)[C@H]6Cc7ccc(O)c8c7[C@@]4(CCN6C)[C@@H]2O8)CC[C@]3(O)[C@H]1C5` [1N,4N-di[10,17-dihydroxy-4-methyl-(13S,14R,17R)-12-oxa-4-azapentacyclo[9.6.1.01,13.05,17.07,18]octadeca-7(18),8,10-trien-14-ylcarbamoylmethylcarbamoylmethyl]succinamide], the affinity in assay [2] corresponds to a Ki of 27 nM.
